Test results as given in patent publication US6369057B1, “Quinoxalines, processes for their preparation and their use” (Aventis Pharma Deutschland GmbH, priority 1991, dated 2002).
≈ marks a conversion by molar mass, not a printed value.

What was measured:
[1] = tested on: HIV; assay: Test of preparations against HIV in cell culture (T-cell culture assay); format: cell-based; settings: Human immunodeficiency virus 1, 72 h; lowest concentration where no giant cells were observed; HIV-infected lymphocytes from donor blood, 3 days at 37° C.
Protocol: Test of Preparations Against HIV in Cell Culture
Complete medium additionally contains 20% fetal calf serum and 40 IU/ml recombinant interleukin 2.
Lymphocytes which have been isolated from fresh donor blood by means of Ficoll gradient centrifugation are cultured for 36 hours in complete medium with an addition of 2 μg/ml phytohemagglutinin (Wellcome) at 37° C. under 5% of CO2. After 10% of DMSO has been added, the cells are frozen at a density of 5 [formula]10^6 and stored in liquid nitrogen. For the test, the cells are defrosted, washed in RPMI medium and cultured for 3-4 days in the complete medium.
The test preparations were dissolved in DMSO at a concentration of 16.7 mg/ml and diluted in complete medium to 1 mg/ml.
0.4 ml of medium was introduced into 24-multiwell dishes. 0.1 ml of the dissolved preparation was added to the upper row of the dish, and, by transferring 0.1 ml portions, a geometric dilution series was established. Controls without preparation always contained 0.4 ml of complete medium containing 0.5% of DMSO. Lymphocyte cultures with a cell density of 5 [formula]10^5 cells/ml were infected by adding 1/50 volume supernatant from HIV-infected lymphocyte cultures. The titer of these culture supernatants was determined by end-point titration as 1-5 [formula]10^6 infectious units/ml. After 30 minutes' incubation at 37° C., the infected lymphocytes were removed by centrifugation and taken up in an equal volume of medium. From this cell suspension, 0.6 ml aliquots were transferred into all wells of the test plate. The mixtures were incubated for 3 days at 37° C.
The infected cell cultures were examined under the microscope for the presence of giant cells, which indicate active virus multiplication in the culture. The lowest concentration of preparation where no giant cells were observed was determined as inhibitory concentration against HIV. As a control, the supernatants from the culture plates were tested for the presence of HIV antigen with the aid of an HIV antigen test following the manufacturer's instructions (Organon).

[2] = molecular target: T1, HIV reverse transcriptase (RT) (Human immunodeficiency virus type 1 group M subtype B, UniProt P03366); assay: Assay for HIV reverse transcriptase inhibition (scintillation proximity assay); format: biochemical; settings: RT from HIV cloned in E. coli; SPA, 60 minutes (37° C.); read-out: Reverse Transcriptase Assay IC50 (converted)
T1 construct: The enzyme RT (from HIV cloned in E. coli); purchased HT-Biotechnology Ltd, Cambridge, UK; host or cells: E. coli
Protocol: Assay of the Substances for HIV Reverse Transcriptase Inhibition
The activity of reverse transcriptase (RT) was determined with the aid of a scintillation proximity assay (SPA).
The reagent kit for the RT-SPA was obtained from Amersham/Buchler (Braunschweig).
The enzyme RT (from HIV cloned in E. coli) originated from HT-Biotechnology Ltd, Cambridge, UK.
The assay was carried out using the manufacturer's (Amersham) protocol manual, with the following modifications: bovine serum albumin was added to the assay buffer to give an end concentration of 0.5 mg/ml the assay was carried out in Eppendorf reaction vessels, using 100 μl volume per batch the manufacturer's RT concentrate (5000 U/ml) was diluted in Tris-HCl buffer 20 mM; pH 7.2; 30% of glycerol, to an activity of 15 U per ml the incubation time for the mixtures was 60 minutes (37° C.) after stopping the reaction and “developing” with the bead suspension, 130 μl of mixture were transferred to 4.5 ml of Tris-HCl buffer, 10 mM; pH 7.4; 0.15 M NaCl, and the tritium activity was measured by means of a [formula]-counter.
For a pre-assay for inhibitory activity, the substances were dissolved in DMSO (stock solution c=1 mg/ml), and tested as a 10^−1, 10^−2, 10^−3, etc., dilution in DMSO.
To determine IC50 values, the inhibitor stock solutions were diluted further in Tris-HCl buffer, 50 mM, pH 8, and tested in suitable concentrations.
The concentration corresponding to a 50% enzyme inhibition was determined from a plot of RT activity versus log Clnh.

| Compound | melting point | MIC [1] [µg/mL] | IC50 [2] [nM] |
| --- | --- | --- | --- |
| C[C@@H]1Nc2cc(Cl)ccc2NC1=O [Example IB, (3S)-6-Chloro-3-methyl-3,4-dihydroquinoxalin-2(1H)-one] | 122 to 123 °C |  |  |
| C[C@H]1Nc2cc(Cl)ccc2NC1=O [Example IC, (3R)-6-Chloro-3-methyl-3,4-dihydroquinoxalin-2(1H)-one] | 123 to 124 °C |  |  |
| O=C1Nc2cc(Cl)ccc2N[C@H]1Cc1ccccc1 [Example II, (3S)-3-Benzyl-7-chloro-3,4-dihydroquinoxalin-2(1H)-one] | 185 °C |  |  |
| C[C@H]1C(=O)Nc2c(cc(Cl)cc2[N+](=O)[O-])N1C(=O)OCc1ccccc1 [Example IV, (3S)-4-N-(Benzyloxycarbonyl)-6-chloro-3-methyl-8-nitro-3,4-dihydroquinoxalin-2(1H)-one] | 85 °C | > 0.8 |  |
| C[C@H]1C(=O)Nc2c(N)cc(Cl)cc2N1C(=O)OCc1ccccc1 [Example V, (3S)-8-Amino-4-N-(benzyloxycarbonyl)-6-chloro-3-methyl-3,4-dihydroquinoxalin-2(1H)-one] | 152 to 154 °C |  | 21700 |
| C[C@H]1C(=O)Nc2ccc(Cl)cc2N1C(=O)Oc1ccc(F)cc1 [Example X, (3S)-6-Chloro-4-N-(4-fluorophenoxycarbonyl)-3-methyl-3,4-dihydroquinoxalin-2(1H)-one] | 168 to 170 °C | 0.8 (≈ 2.39 µM) |  |
| C[C@H]1C(=O)Nc2ccc(Cl)cc2N1C(=O)Oc1ccc(Cl)cc1 [Example XI, (3S)-6-Chloro-4-N-(4-chlorophenoxycarbonyl)-3-methyl-3,4-dihydroquinoxalin-2(1H)-one] | 185 to 188 °C |  |  |
| C[C@H]1C(=O)Nc2ccc(Cl)cc2N1C(=O)OCCBr [Example XII, (3S)-4-N-(2-Bromoethyloxycarbonyl)-6-chloro-3-methyl-3,4-dihydroquinoxalin-2(1H)-one] | 133 to 136 °C | < 0.8 |  |
| CC(C)=CCN1CC(=O)Nc2ccc(Cl)cc21 [Example XV, 6-Chloro-4-N-(3-methyl-2-buten-1-yl)-3,4-dihydro-quinoxalin-2(1H)-one] | 150 to 151 °C |  |  |
| C=CC(C)(C)C1C(=O)Nc2ccc(Cl)cc2N1CC=C(C)C (centres unmarked) [Example XVI, 6-Chloro-4-N-(3-methyl-2-buten-1-yl)-3-(1,1-dimethyl-2-propen-1-yl)-3,4-dihydroquinoxalin-2(1H)-one] | 110 to 112 °C |  |  |
| COc1cc2c(cc1OC)NC(C)C(=O)N2 (centres unmarked) [Example XVII, 6,7-Dimethoxy-3-methyl-3,4-dihydroquinoxalin-2(1H)-one] | 151 °C |  |  |
| CC(C)=CCN1c2cc(Cl)ccc2NC(=O)[C@@H]1C [VI-A, (3S)-6-Chloro-3-methyl-4-N-(3-methyl-2-buten-1-yl)-3,4-dihydroquinoxalin-2(1H)-one] | 117 to 118 °C | 0.16 (≈ 0.604 µM) | 302 |
| CC=CCN1c2cc(Cl)ccc2NC(=O)[C@@H]1C [VII, (3S)-6-Chloro-3-methyl-4-N-(2-buten-1-yl)-3,4-dihydroquinoxalin-2(1H)-one] | 87 to 88 °C | < 0.16 | 399 |
| C=COC(=O)N1c2cc(Cl)ccc2NC(=O)[C@@H]1C [XIV, (3S)-6-Chloro-3-methyl-4-N-(vinyloxycarbonyl)-3,4-di-hydroquinoxalin-2(1H)-one] | 177 to 179 °C | < 0.16 | 600 |
| C=C(C)OC(=O)N1c2cc(Cl)ccc2NC(=S)[C@@H]1C [XXIII, (3S)-6-Chloro-4-N-(isopropenyloxycarbonyl)-3-methyl-3,4-dihydroquinoxaline-2(1H)-thione] | 148 to 150 °C | < 0.01 | 84.2 |

The next lines start with results.

| melting point | Compound | MIC [1] [µg/mL] | IC50 [2] [nM] |
| --- | --- | --- | --- |
| 132 °C | CC(C)=CCN1CC(=O)Nc2cc(S(=O)(=O)Oc3ccccc3)ccc21 [Example XXX, 4-(3-Methyl-2-buten-1-yl)-7-phenoxysulfonyl-3,4-dihydroquinoxalin-2(1H)-one] |  |  |
| 142 to 144 °C | C[C@H]1C(=O)Nc2ccc(Cl)cc2N1C(=O)Cl [Example XXXV, (3S)-6-Chloro-4-N-chlorocarbonyl-3-methyl-3,4-dihydroquinoxalin-2(1H)-one] |  |  |
| 187 to 190 °C | COc1ccc(OC(=O)N2c3cc(Cl)ccc3NC(=O)[C@@H]2C)cc1 [IX, (3S)-6-Chloro-4-N-(4-methoxyphenoxycarbonyl)-3-methyl-3,4-dihydroquinoxalin-2(1H)-one] |  |  |
| 185 °C | C=C(C)OC(=O)N1c2ccc(C)cc2NC(=O)C1(C)C [VIII, 4-N-(Isopropenyloxycarbonyl)-3,3,7-trimethyl-3,4-di-hydroquinoxalin-2(1H)-one] |  |  |
| 132 to 133 °C | CC1(C)Nc2ccc(Cl)cc2N(C2CC2)C1=O [XIX, 7-Chloro-1-N-(cyclopropyl)-3,3-dimethyl-3,4-dihydroquinoxalin-2(1H)-one] |  |  |
| 253 to 254 °C | O=C1CNc2ccc(S(=O)(=O)Oc3ccccc3)cc2N1 [XXIX, 7-Phenoxysulfonyl-3,4-dihydroquinoxalin-2(1H)-one] |  |  |
| 140 °C (dec.) | O=C1Nc2cc(S(=O)(=O)Oc3ccccc3)ccc2N2C(=O)CCC12 (centres unmarked) [XXVII, 7-Phenoxysulfonyl-3,3a-dihydropyrrolo[1,2-a]quinoxaline-1,4(2H,5H)-dione] |  |  |
| 93 to 94 °C | COCCOC(=O)N1c2cc(Cl)ccc2NC(=O)[C@@H]1C [XXXVI, (3S)-6-Chloro-4-N-(2-methoxyethoxycarbonyl)-3-methyl-3,4-dihydroquinoxalin-2(1H)-one] |  |  |
